In patent publication US5298494A, “Monosaccharides having anti-proliferation and anti-inflammatory activity, compositions and uses thereof” (Greenwich Pharmaceuticals Incorporated, priority 1993, dated 1994):
Like-named read-outs stand apart in the source and are kept apart here.

What was measured:
[1] = tested on: Interleukin 1 (IL-1) production by peritoneal macrophages; experiment: IL-1 Assay: production of interleukin-1 by peritoneal macrophages (thymocyte bioassay); type: cell-based, mouse (C57B1/6); design: inhibition: dose or concentration left out as unconfirmed
Description: Interleukin 1 (IL-1) is a potent immunomodulatory cytokine that has a broad range of pro-inflammatory activities. IL-1 is known to be produced by activated accessory cells such as macrophages. Accessory cell production of IL-1 results in the activation and proliferation of T and B lymphocytes. Therefore, by inhibiting macrophage activation and production of IL-1, the activation and proliferation of the cellular effectors of inflammation can be modulated. Compounds of the invention were screened for inhibitory activity in a classical IL-1 assay. Six to 8 week old male C57B1/6 mice were purchased from Harlan Sprague Dawley. Peritoneal macrophages were elicited by the administration to mice of a single intraperitoneal injection of 0.2 ml of complete Freund's adjuvant. After 48 hours, elicited macrophages were removed from the mice by lavage with the use of Hank's balanced salt solution. […] To the macrophage cultures were added various doses of the compounds of the invention and 10 ug/ml of the macrophage activator lipopolysaccharide (to stimulate IL-1 production). Control cultures consisted of macrophages, lipopolysaccharide and culture medium containing various doses of DMSO only. […] The amount of IL-1 produced in the individual wells was determined in a bioassay for IL-1. This involved the removal of thymuses from mice less than 8 weeks of age. Thymocytes were isolated by passing each thymus through a stainless steel mesh screen. […] After 18 hours cells were harvested and radioactive incorporation (as a measure of cell proliferation) was quantitated in a liquid scintillation counter. The students t test was used to determine the significance of the difference between experimental and control values.

[2] = tested on: T lymphocytes (normal mouse spleen cells) stimulated with ConA; experiment: Mouse Spleen Cell ConA Blastogenesis Assay; type: cell-based, mouse (C57Bl/6); conditions: Mus musculus, T-lymphocyte; for inhibition at 0.1 µg/mL: compound 0.1 ug/ml; for inhibition at 1 µg/mL: compound 1 ug/ml; for inhibition at 2.5 µg/mL: compound 2.5 ug/ml; for inhibition at 10 µg/mL: compound 10 ug/ml; for inhibition at 25 µg/mL: compound 25 ug/ml; for inhibition at 100 µg/mL: compound 100 ug/ml
[3] = ConA 1 ug/ml, read-out: % change from control, ConA blastogenic response
[4] = ConA 4 ug/ml, read-out: % change from control, ConA blastogenic response

## CCCCCC#CCOC[C@H]1O[C@@]2(OC)COC(C)(C)O[C@H]2[C@@H]1OCC#CCCCCC [Id, methyl 1,3-O-isopropylidene-4,6-di-O-(2-octynyl)-α-D-fructofuranoside]
[1]; 0.001 ug/ml
  ^3 H-Thymidine uptake by thymocytes: 10,850 ± 995 cpm
[1]; 0.01 ug/ml
  ^3 H-Thymidine uptake by thymocytes: 13,080 cpm
[1]; 0.1 ug/ml
  ^3 H-Thymidine uptake by thymocytes: 13,190 ± 560 cpm
[1]; 1 ug/ml
  ^3 H-Thymidine uptake by thymocytes: 9,880 ± 1,029 cpm
[1]; 2.5 ug/ml
  ^3 H-Thymidine uptake by thymocytes: 6,400 ± 1,070 cpm
[1]; 10 ug/ml
  ^3 H-Thymidine uptake by thymocytes: 3,050 ± 191 cpm
[1]; 25 ug/ml
  ^3 H-Thymidine uptake by thymocytes: 2,537 ± 182 cpm
[1]; 100 ug/ml
  ^3 H-Thymidine uptake by thymocytes: 1,930 cpm
[1]; Mus musculus, Peritoneal macrophage, 0.001 ug/ml, read-out: % effect on IL-1 production (thymidine uptake by thymocytes)
  inhibition at 0.001 µg/mL: 0%
[1]; Mus musculus, Peritoneal macrophage, 0.01 ug/ml, read-out: % effect on IL-1 production (thymidine uptake by thymocytes)
  inhibition at 0.01 µg/mL: -20%
[1]; Mus musculus, Peritoneal macrophage, 0.1 ug/ml, read-out: % effect on IL-1 production (thymidine uptake by thymocytes)
  inhibition at 0.1 µg/mL: -19%
[1]; Mus musculus, Peritoneal macrophage, 2.5 ug/ml, read-out: % effect on IL-1 production (thymidine uptake by thymocytes)
  inhibition at 2.5 µg/mL: 44%
[1]; Mus musculus, Peritoneal macrophage, 10 ug/ml, read-out: % effect on IL-1 production (thymidine uptake by thymocytes)
  inhibition at 10 µg/mL: 70%
[1]; Mus musculus, Peritoneal macrophage, 25 ug/ml, read-out: % effect on IL-1 production (thymidine uptake by thymocytes)
  inhibition at 25 µg/mL: 71%
[1]; Mus musculus, Peritoneal macrophage, 100 ug/ml, read-out: % effect on IL-1 production (thymidine uptake by thymocytes)
  inhibition at 100 µg/mL: 78%
[1]; Mus musculus, Peritoneal macrophage, read-out: % effect on IL-1 production (thymidine uptake by thymocytes)
  inhibition: 10%
[2]; ConA 1 ug/ml, 0.01 ug/ml, read-out: % Change from Control (Table II)
  inhibition at 0.01 µg/mL: 9%
[2]; ConA 1 ug/ml, compound 0.01 ug/ml, read-out: % change from control, ConA blastogenic response
  inhibition at 0.01 µg/mL: 10%
[2]; [3]
  inhibition at 0.1 µg/mL: 25%
  inhibition at 1 µg/mL: 67%
  inhibition at 2.5 µg/mL: 91%
  inhibition at 10 µg/mL: 100%
  inhibition at 25 µg/mL: 100%
  inhibition at 100 µg/mL: 99%
[2]; ConA 4 ug/ml, 0.01 ug/ml, read-out: % Change from Control (Table II)
  inhibition at 0.01 µg/mL: 16%
[2]; ConA 4 ug/ml, compound 0.01 ug/ml, read-out: % change from control, ConA blastogenic response
  inhibition at 0.01 µg/mL: 14%
[2]; [4]
  inhibition at 0.1 µg/mL: 27%
  inhibition at 1 µg/mL: 75%
  inhibition at 2.5 µg/mL: 94%
  inhibition at 10 µg/mL: 100%
  inhibition at 25 µg/mL: 100%
  inhibition at 100 µg/mL: 99%
